Measurements as given in paper PMC7178874, “The antibiotic furagin and its derivatives are isoform-selective human carbonic anhydrase inhibitors” (Journal of Enzyme Inhibition and Medicinal Chemistry, 2020).

How the values were obtained:
Assay in all cases: stopped-flow CO2 hydration assay
Type in all cases: biochemical
[1] = target: T1, hCA IX (Homo sapiens, UniProt Q16790); conditions: read-out: KI (nM)* / CA IX
T1 construct: gene CA9; recombinant, obtained in-house
Description: stopped-flow CO2 hydration assay on hCA IX

[2] = target: T2, hCA II (Homo sapiens, UniProt P00918); conditions: read-out: KI (nM)* / CA II (converted)
T2 construct: gene CA2; recombinant, obtained in-house
Description: stopped-flow CO2 hydration assay on hCA II

[3] = target: T3, hCA I (Homo sapiens, UniProt P00915); conditions: read-out: KI (nM)* / CA I (converted)
T3 construct: gene CA1; recombinant, obtained in-house
Description: stopped-flow CO2 hydration assay on hCA I

[4] = target: T4, hCA XII (Homo sapiens, UniProt O43570); conditions: read-out: KI (nM)* / CA XII
T4 construct: gene CA12; recombinant, obtained in-house
Description: stopped-flow CO2 hydration assay on hCA XII

T4 sequence (O43570 25-354 limits assumed): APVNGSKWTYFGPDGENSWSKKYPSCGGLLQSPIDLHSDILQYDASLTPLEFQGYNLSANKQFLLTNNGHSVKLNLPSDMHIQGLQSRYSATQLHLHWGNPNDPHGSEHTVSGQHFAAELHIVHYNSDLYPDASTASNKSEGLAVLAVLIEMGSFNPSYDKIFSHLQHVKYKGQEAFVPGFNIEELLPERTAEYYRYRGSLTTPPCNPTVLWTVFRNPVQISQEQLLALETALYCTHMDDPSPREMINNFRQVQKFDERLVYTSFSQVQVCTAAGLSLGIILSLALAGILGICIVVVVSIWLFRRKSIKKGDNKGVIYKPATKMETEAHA
T3 sequence (P00915 2-261): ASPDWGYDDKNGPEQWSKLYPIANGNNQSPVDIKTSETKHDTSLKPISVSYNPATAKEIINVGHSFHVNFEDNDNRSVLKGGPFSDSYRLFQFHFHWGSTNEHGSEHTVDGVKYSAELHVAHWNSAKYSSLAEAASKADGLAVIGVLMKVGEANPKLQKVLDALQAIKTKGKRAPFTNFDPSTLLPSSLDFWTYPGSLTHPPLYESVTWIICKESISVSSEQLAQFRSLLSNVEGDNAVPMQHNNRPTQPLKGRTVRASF

| SMILES | Ki [1] [nM] | Ki [2] [nM] | Ki [3] [nM] | Ki [4] [nM] |
| --- | --- | --- | --- | --- |
| O=C1CN(N=Cc2ccccc2)C(=O)N1 [compound 2, 1-(Benzylideneamino)-imidazolidine-2,4-dione] | 3500 | 900 | 39600 | 5600 |
| O=C1CN(N=Cc2ccc([N+](=O)[O-])cc2)C(=O)N1 [compound 4, 1-((4-Nitrobenzylidene)amino)imidazolidine-2,4-dione] | 7400 | 11100 | > 100000 | 2800 |
| COC(=O)c1ccc(C=NN2CC(=O)NC2=O)cc1 [compound 5, Methyl 4-(((2,4-dioxoimidazolidin-1-yl)imino)methyl)benzoate] | 4900 | 8300 | > 100000 | 930 |
| CC(C)=CC=NN1CC(=O)NC1=O [compound 10, 1-((3-Methylbut-2-en-1-ylidene)amino)imidazolidine-2,4-dione] | 2900 | 16500 | 28800 | 880 |
| O=C1CN(N=Cc2ccc(O)cc2O)C(=O)N1 [compound 12, 1-((2,4-Dihydroxybenzylidene)amino)imidazolidine-2,4-dione] | 5800 | 59900 | > 100000 | 150 |
| O=C1CN(N=Cc2ccc(B(O)O)cc2)C(=O)N1 [compound 13] | 7300 | 14200 | 90700 | 230 |
| O=C1CN(N=Cc2ccccn2)C(=O)N1 [compound 14, 1-((Pyridin-2-ylmethylene)amino)imidazolidine-2,4-dione] | 4500 | 4200 | 51800 | 1300 |
| O=C1CN(N=Cc2cccnc2)C(=O)N1 [compound 15, 1-((Pyridin-3-ylmethylene)amino)imidazolidine-2,4-dione] | 2300 | 620 | 45600 | 3200 |
| O=C1CN(N=Cc2ccncc2)C(=O)N1 [compound 16, 1-((Pyridin-4-ylmethylene)amino)imidazolidine-2,4-dione] | 1600 | 3300 | 26600 | 810 |

Molecules with a lower Ki [1], results first:

| Ki [1] [nM] | Ki [2] [nM] | Ki [3] [nM] | Ki [4] [nM] | SMILES |
| --- | --- | --- | --- | --- |
| 1200 | 6400 | 57600 | 4700 | COc1ccc(C=NN2CC(=O)NC2=O)cc1 [compound 3, 1-((4-Methoxybenzylidene)amino)imidazolidine-2,4-dione] |
| 1100 | 4000 | 19100 | 160 | O=C1CN(N=CCCCC=NN2CC(=O)NC2=O)C(=O)N1 [compound 6, 1,1’-((Pentane-1,5-diylidene)bis(azaneylylidene))bis(imidazolidine-2,4-dione)] |
| 850 | 710 | 16800 | 1700 | O=C1CN(N=Cc2ccoc2)C(=O)N1 [compound 7, 1-((Furan-3-ylmethylene)amino)imidazolidine-2,4-dione] |
| 810 | 23600 | 45900 | 440 | CCOC(=O)/C=C/C=NN1CC(=O)NC1=O [compound 9, Ethyl (2E)-4-((2,4-dioxoimidazolidin-1-yl)imino)but-2-enoate] |
| 560 | 12400 | 9600 | 350 | O=C1CN(N=Cc2cnc[nH]2)C(=O)N1 [compound 17, 1-(((1 h-Imidazol-5-yl)methylene)amino)imidazolidine-2,4-dione] |
| 400 | 3100 | > 100000 | 360 | COc1ccc(/C=C/C=NN2CC(=O)NC2=O)cc1 [compound 11, 1-(((2e)-3–(4-methoxyphenyl)allylidene)amino)imidazolidine-2,4-dione] |
| 350 | 540 | > 100000 | 910 | O=C1CN(N=Cc2ccc(OCc3ccccc3)cc2)C(=O)N1 [compound 8, 1-((4-(Benzyloxy)benzylidene)amino)imidazolidine-2,4-dione] |
| 260 | 9600 | > 100000 | 57 | O=C1CN(/N=C/C=C/c2ccc([N+](=O)[O-])o2)C(=O)N1 [Furagin] |
